Like-named read-outs stand apart in the source and are kept apart here.
Legend:
SKOV-3 = test: Cell proliferation assay (CellTiter-Glo), SKOV-3; format: cell-based; details: Homo sapiens, SK-OV-3; 72 h exposure; mean ± SD of two experiments
Procedure: (§1) Given the desirable enzyme activity profile, these compounds were further assayed for their antiproliferative activities against five independent human tumour cell line collections harbouring PIK3CA mutation, including human ovarian cancer cell line SKOV-3, human breast cancer T47D and MCF-7, human lung cancer H1975 and H460. […] In general, the cellular activity of tested derivatives corrected with their effects on kinase activity.
(§2) All target compounds were evaluated for antiproliferative potency against SKOV-3, T47D,NCI-H1975, NCI-H460,and MCF-7 tumour cell lines using a CellTiter-Glo® Luminescent Cell Viability Assay. The human tumour cell lines used were obtained from the ATCC or Shanghai ZhongQiaoXinZhou Biotech. All the mediums and FBS were Gibco. T47D, H1975 and NCI-H460 tumour cells were cultured in RPMI1640 medium supplemented with 10% FBS. SKOV-3 was cultured in McCoy’s 5 A medium supplemented with 10%FBS. The day before treatment with compounds, cells were seeded at a density of 2000 or 5000 in each well of a 96-well plate. The tumour cells were then treated with 3-fold serial diluted compound or DMSO control in the incubator at 37 °C and 5% CO2 for 3 days, prior to the addition of CellTiter-Glo reagents (Promega) and reading of luminescence using a PerkinElmer Envision plate reader. Data were analysed using GraphPad Prism 7.0.

T47D = test: Cell proliferation assay (CellTiter-Glo), T47D; format: cell-based; details: Homo sapiens, 72 h exposure, mean ± SD of two experiments
Procedure: as §1, §2

T47D cells = test: Cell cycle analysis, PI flow cytometry; format: cell-based, human; details: 24 h
Procedure: Considering compound 35 was most sensitive in T47D cells, we decided to get some mechanistic insight into the mode of action in T47D cell line. As such, the annexin V/7-AAD staining and cell cycle phase distribution have been carried out. […] Furthermore, T47D cells were also treated with different concentrations of 35, and the percentage of apoptotic cells was measured.
For cell cycle analysis, T47D cell (1 × 10^6) were seeded in 6-well plates overnight and treated with different concentrations of compound 35 and DMSO control on the next day. After 24 h, the cells were collected by EDTA-free trypsinization, centrifuged at 1500 rpm for 5 min, and fixed in 75% ethanol at −20 °C for 1 h. The cells were then centrifuged at 2000 rpm for 5 min, resuspended in 500 µL PI/Rnase Staining Buffer, incubated for 30 min at room temperature, and analysed using flow cytometry. The data were analysed using Modfit software. For cell apoptosis analysis, T47D cell were seeded in 6 well-plates and treated with DMSO or compound 35 for 24 h. The treated cells were collected and washed with cold PBS for three times, resuspended in 185 µL binding buffer containing 5 μL Annexin V-FITC Apoptosis Detection Kit and 10 μL 7-AAD Viability Staining Solution for 15 min at room temperature in the dark. Apoptotic cells were analysed by flow cytometer.

[1] = Liver microsomal stability assay, RLM; format: in vitro ADME, rat
Procedure: The metabolic stability of compound 35 was determined in human or SD rat liver microsomes, with and without the NADPH regenerating system. Briefly, compound 35 was incubated with microsomes (human microsome, CORNING, lot No. 38296; rat microsome, Xenotech, Lot No. 2110178) (0.5 mg protein/mL) at 1 μM at 37 °C in potassium phosphate buffer (100 mM at pH 7.4 with 10 mM MgCl2). The reactions were initiated by adding prewarmed cofactors (1 mmol NADPH). After incubation for different times (0, 5, 10, 20, 30, and 60 min) at 37 °C, cold acetonitrile containing 200 ng/mL tolbutamide and 200 ng/mL labetalol as internal standards was added to precipitate the protein. Then, the samples were centrifuged, and the supernatants were transferred into HPLC water, mixed by plate shaker for 10 min prior to LC − MS/MS analysis.

[2] = Parallel artificial membrane permeability assay (Egg-PAMPA); format: in vitro ADME; details: incubation 4 h; for Papp at 4 h, 10 μM: PAMPA
Procedure: 10.0 μM donor solution (5% DMSO) was prepared by diluting of working solution with PBS. The donor solution was added to each well of the donor plate, whose PVDF membrane was precoated with 5 µL of 1% lecithin/dodecane mixture. Duplicates were prepared.Then, PBS was added to each well of the PTFE acceptor plate. The donor plate and acceptor plate were combined and incubated for 4 h at room temperature with shaking at 300 rpm. Acceptor samples and donor samples were prepared and analysed by LC-MS/MS.

CYP1A2 = molecular target: T1, CYP1A2 (Homo sapiens, UniProt P05177); test: CYP450 inhibition assay in human liver microsomes; format: in vitro ADME; details: 10 μM
T1 construct: tissue Lot No. 38292; host or cells: human liver microsomes
T1 sequence (P05177 1-516): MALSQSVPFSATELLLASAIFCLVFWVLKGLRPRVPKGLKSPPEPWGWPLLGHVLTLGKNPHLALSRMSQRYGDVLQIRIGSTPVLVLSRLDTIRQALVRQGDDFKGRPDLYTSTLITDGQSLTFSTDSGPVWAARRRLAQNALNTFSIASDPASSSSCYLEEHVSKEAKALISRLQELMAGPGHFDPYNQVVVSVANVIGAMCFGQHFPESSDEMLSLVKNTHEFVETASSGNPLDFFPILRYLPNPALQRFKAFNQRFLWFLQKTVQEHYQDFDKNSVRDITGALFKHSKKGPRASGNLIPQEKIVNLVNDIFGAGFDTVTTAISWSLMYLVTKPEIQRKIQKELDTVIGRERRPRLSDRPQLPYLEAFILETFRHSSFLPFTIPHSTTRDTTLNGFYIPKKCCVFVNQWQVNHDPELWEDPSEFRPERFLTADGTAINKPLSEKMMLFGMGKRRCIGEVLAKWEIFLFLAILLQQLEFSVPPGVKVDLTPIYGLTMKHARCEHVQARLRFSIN
Procedure: (§3) Cytochrome P450 inhibition was evaluated in human liver microsomes (0.253 mg/mL, Lot No. 38292) using five specific probe substrates (CYP1A2, 10 μM phenacetin; CYP2D6, 5 μM dextromethorphan; and CYP3A4, 2 μM midazolam; 2C9, 5 μM Diclofenac; 2C19, 30 μM S-mephenytoin) and positive control in the presence of multiple concentrations of the test compound. After pre-warm at 37 °C for 10 min, the reaction was initiated by the addition of NADPH. The mixture was incubated at 37 °C for 10 min, terminated by the addition of cold stop solution (200 ng/mL tolbutamide and 200 ng/mL labetalol in acetonitrile). The samples were centrifuged, and the supernatants were analysed by LC − MS/MS.

CYP2C9 = molecular target: T2, CYP2C9 (Homo sapiens, UniProt P11712); test: CYP450 inhibition assay in human liver microsomes; format: in vitro ADME; details: 10 μM
T2 construct: tissue Lot No. 38292; host or cells: human liver microsomes
Procedure: as §3

CYP2D6 = molecular target: T3, CYP2D6 (Homo sapiens, UniProt P10635); test: CYP450 inhibition assay in human liver microsomes; format: in vitro ADME; details: 10 μM
T3 construct: tissue Lot No. 38292; host or cells: human liver microsomes
Procedure: as §3

T2 sequence (P11712 whole entry): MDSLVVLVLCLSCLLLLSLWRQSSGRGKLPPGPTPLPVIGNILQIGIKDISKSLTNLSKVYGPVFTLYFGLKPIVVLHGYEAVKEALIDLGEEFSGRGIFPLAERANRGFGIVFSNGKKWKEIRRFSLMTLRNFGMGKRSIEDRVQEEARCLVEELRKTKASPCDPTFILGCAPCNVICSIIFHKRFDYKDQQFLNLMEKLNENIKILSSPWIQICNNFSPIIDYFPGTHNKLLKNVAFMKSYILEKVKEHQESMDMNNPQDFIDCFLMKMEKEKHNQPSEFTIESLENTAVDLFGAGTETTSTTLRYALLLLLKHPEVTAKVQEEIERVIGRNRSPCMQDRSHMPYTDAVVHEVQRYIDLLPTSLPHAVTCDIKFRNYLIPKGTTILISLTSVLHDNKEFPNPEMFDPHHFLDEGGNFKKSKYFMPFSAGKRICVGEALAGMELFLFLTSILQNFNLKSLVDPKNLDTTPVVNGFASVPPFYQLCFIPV
T3 sequence (P10635 whole entry): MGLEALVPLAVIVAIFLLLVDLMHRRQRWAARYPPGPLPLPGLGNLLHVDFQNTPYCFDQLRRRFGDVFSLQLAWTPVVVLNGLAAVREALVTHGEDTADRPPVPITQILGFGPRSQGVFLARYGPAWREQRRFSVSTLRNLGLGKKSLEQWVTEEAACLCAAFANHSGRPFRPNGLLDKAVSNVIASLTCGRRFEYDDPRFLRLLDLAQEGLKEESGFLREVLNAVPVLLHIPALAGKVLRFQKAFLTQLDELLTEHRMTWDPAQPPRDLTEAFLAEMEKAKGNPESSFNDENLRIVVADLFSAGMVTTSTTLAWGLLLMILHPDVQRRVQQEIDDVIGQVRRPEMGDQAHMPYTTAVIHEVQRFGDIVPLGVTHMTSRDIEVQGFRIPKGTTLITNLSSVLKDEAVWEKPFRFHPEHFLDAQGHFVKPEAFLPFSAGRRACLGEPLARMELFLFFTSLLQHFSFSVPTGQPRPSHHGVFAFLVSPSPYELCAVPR

With `COc1ncc(-c2cc(C)cn3cc(C(=O)N4CCCC4)nc23)cc1NS(=O)(=O)c1ccc(F)cc1` [Compound 35, 4-Fluoro-N-(2-methoxy-5–(6-methyl-2-(pyrrolidine-1-carbonyl)Imidazo[1,2-a]pyridin-8-yl)pyridin-3-yl)benzenesulfonamide] the IC50 (SKOV-3) was 26.6 ± 1.3 µM, the IC50 (T47D) was 7.9 ± 0.8 µM and the cell cycle effect (T47D cells) was “S cell cycle arrest”. For the same compound, the “Remaining (T = 60min)” value ([1]; 1 μM, 60 min) was 31.5%, the microsomal CLint at 1 μM ([1]; SD, rat, rat liver microsomes, pH 7.4, 0.5 mg protein/mL, read-out: Metabolic stability CL int) was 43.4 µL/min/mg and the half-life at 1 μM ([1]; SD, rat, rat liver microsomes, pH 7.4, 0.5 mg protein/mL, read-out: Metabolic stability T1/2) was 31.9 min. For the same compound, the “Mean Pe” value ([2]; 10 μM) was “higher than 10 nm/s”, the Papp at 4 h, 10 μM ([2]; read-out: Mean Pe) was 1.54 ×10⁻⁶ cm/s and the Papp at 4 h, 10 μM ([2]; read-out: Permeability) was greater than 1 ×10⁻⁶ cm/s. For the same compound, the CYP1A2 % inhibition (CYP1A2) was 9.8%, the CYP2C9 % inhibition (CYP2C9) was 30.6% and the CYP2D6 % inhibition (CYP2D6) was 13.5%.

Source: publication PMC9858543, “Design, synthesis and evaluation of 2, 6, 8-substituted Imidazopyridine derivatives as potent PI3Kα inhibitors” (Journal of Enzyme Inhibition and Medicinal Chemistry, 2023)
